Measurements published in patent publication US6706663B2, “Herbicidal 3-heterocyclic substituted benzisothiazole and benzisoxazole compounds” (Wyeth, priority 2000, dated 2004).

Assays:
ORYSAT (Rice, Tebonnet) [1] = assay: Preemergence herbicidal evaluation; format: in vivo, Oryza sativa, (L.) Tebonnet; settings: rated 4-5 weeks after treatment
From the text: (§1) Results of herbicide evaluation are expressed on a rating scale (0-9). The scale is based upon a visual observation of plant stand, vigor, malformation, size, chlorosis and overall plant appearance as compared with a control.
(§2) The preemergence herbicidal activity of the test compounds of the present invention is exemplified by the following tests in which the seeds of a variety of monocotyledonous and dicotyledonous plants are separately mixed with potting soil and planted on top of approximately one inch of soil in separate pint cups. […] The treated cups are then placed on greenhouse benches, watered and cared for in accordance with conventional greenhouse procedures. From four to five weeks after treatment, the tests are terminated and each cup is examined and rated according to the rating system provided in Example 87. The plant species used and the compounds evaluated are the same as those shown in Example 87.

GALAP (Galium aparine) [2] = assay: Preemergence herbicidal evaluation; format: in vivo; settings: rated 4-5 weeks after treatment
From the text: as §1, §2

[3] = system: GLXMAW (Soybean, Williams); assay: Preemergence herbicidal evaluation; format: in vivo, Glycine max, (L.) Merr. cv Williams; settings: rated 4-5 weeks after treatment
From the text: as §1, §2

[4] = system: IPOHE (Ipomoea hederacea); assay: Preemergence herbicidal evaluation; format: in vivo, (L.) Jacq.; settings: rated 4-5 weeks after treatment
From the text: as §1, §2

[5] = system: IPOHE (Ipomoea hederacea); assay: Postemergence herbicidal evaluation; format: in vivo, (L.) Jacq.; settings: postemergence
Method: (§3) In the tests, seedling plants are grown in jiffy flats for about two weeks. […] After spraying, the plants are placed on greenhouse benches and are cared for in accordance with conventional greenhouse procedures. From four to five weeks after treatment, the seedling plants are examined and rated according to the rating system set forth below. Where more than one test is involved for a given compound, the data are averaged.
as §1

SETVI (Setaria viridis) [6] = assay: Postemergence herbicidal evaluation; format: in vivo, (L.) Beau; settings: postemergence
Method: In the tests, seedling plants are grown in jiffy flats for about two weeks. The test compounds are dispersed in 50/50 acetone/water mixtures containing 0.5% TWEEN® 20, a polyoxyethylene sorbitan monolaurate surfactant of Atlas Chemical Industries, in sufficient quantities to provide the equivalent of about 0.0040 kg to 1.000 kg per hectare of active compound when applied to the plants through a spray nozzle operating at 40 psi for a predetermined time. After spraying, the plants are placed on greenhouse benches and are cared for in accordance with conventional greenhouse procedures. From four to five weeks after treatment, the seedling plants are examined and rated according to the rating system set forth below. Where more than one test is involved for a given compound, the data are averaged.
as §1

[7] = system: TRZAWR (Wheat, Winter, cv Riband); assay: Postemergence herbicidal evaluation; format: in vivo, Triticum aestivum; settings: postemergence
Method: as §3, §1

[8] = system: ABUTH (Abutilon theophrasti); assay: Preemergence herbicidal evaluation; format: in vivo, Medic.; settings: rated 4-5 weeks after treatment
From the text: as §1, §2

[9] = system: MOOVA (Monochoria vaginalis); assay: Flooded paddy, preemergence weed control; format: in vivo, Presl.; settings: rated 3-4 weeks after treatment, 0-9 rating scale
Method: as §1
(§4) Preemergence herbicidal activity under flooded paddy conditions is determined as follows: plant seeds or propagating organs are planted in the top 0.5 cm of silt loam soil in 32 oz. plastic containers with a diameter of 10.5 cm and no drainage holes. Water is added to these containers and maintained at 1.5 to 3 cm above the soil surface for the duration of the experiment. […] The treated containers are placed on greenhouse benches and cared for in accordance with conventional greenhouse procedures.

[10] = system: GLXMAW (Soybean, Williams); assay: Postemergence herbicidal evaluation; format: in vivo, Glycine max, (L.) Merr. cv Williams; settings: postemergence
Method: as §3, §1

[11] = system: ABUTH (Abutilon theophrasti); assay: Postemergence herbicidal evaluation; format: in vivo, Medic.; settings: postemergence
Method: as §3, §1

[12] = system: CASOB (Cassia obtusifolia); assay: Postemergence herbicidal evaluation; format: in vivo, L.; settings: postemergence
Method: as §3, §1

[13] = system: CHEAL (Chenopodium album); assay: Postemergence herbicidal evaluation; format: in vivo, L.; settings: postemergence
Method: as §3, §1

[14] = system: AMBEL (Ambrosia artemisifolia); assay: Postemergence herbicidal evaluation; format: in vivo, L.; settings: postemergence
Method: as §3, §1

[15] = system: ECHORC (Echinochloa oryzoides); assay: Flooded paddy, preemergence weed control; format: in vivo, Echinochloa oryzoides (Ard.) Fritsch.; settings: rated 3-4 weeks after treatment, 0-9 rating scale
Method: as §1, §4

[16] = system: ECHCG (Echinochloa crus-galli); assay: Postemergence herbicidal evaluation; format: in vivo, (L.) Beau; settings: postemergence
Method: as §3, §1

ORYSAT (Rice, Tebonnet) [17] = assay: Postemergence herbicidal evaluation; format: in vivo, Oryza sativa, (L.) Tebonnet; settings: postemergence
Method: as §3, §1

[18] = system: CASOB (Cassia obtusifolia); assay: Preemergence herbicidal evaluation; format: in vivo, L.; settings: rated 4-5 weeks after treatment
From the text: as §1, §2

[19] = system: CHEAL (Chenopodium album); assay: Preemergence herbicidal evaluation; format: in vivo, L.; settings: rated 4-5 weeks after treatment
From the text: as §1, §2

[20] = system: AMBEL (Ambrosia artemisifolia); assay: Preemergence herbicidal evaluation; format: in vivo, L.; settings: rated 4-5 weeks after treatment
From the text: as §1, §2

CYPIR (Cyperus iria) = assay: Flooded paddy, preemergence weed control; format: in vivo; settings: rated 3-4 weeks after treatment, 0-9 rating scale
Method: as §1, §4

GALAP (Galium aparine) [21] = assay: Postemergence herbicidal evaluation; format: in vivo; settings: postemergence
Method: as §3, §1

SETVI (Setaria viridis) [22] = assay: Preemergence herbicidal evaluation; format: in vivo, (L.) Beau; settings: rated 4-5 weeks after treatment
From the text: as §1, §2

[23] = system: ECHCG (Echinochloa crus-galli); assay: Preemergence herbicidal evaluation; format: in vivo, (L.) Beau; settings: rated 4-5 weeks after treatment
From the text: as §1, §2

ZEAMX (Corn, Field) [24] = assay: Preemergence herbicidal evaluation; format: in vivo, Zea mays, L.; settings: rated 4-5 weeks after treatment
From the text: as §1, §2

[25] = system: TRZAWR (Wheat, Winter, cv Riband); assay: Preemergence herbicidal evaluation; format: in vivo, Triticum aestivum; settings: rated 4-5 weeks after treatment
From the text: as §1, §2

[26] = system: SAGPY (Sagittaria pygmaea); assay: Flooded paddy, preemergence weed control; format: in vivo, L.; settings: rated 3-4 weeks after treatment, 0-9 rating scale
Method: as §1, §4

ZEAMX (Corn, Field) [27] = assay: Postemergence herbicidal evaluation; format: in vivo, Zea mays, L.; settings: postemergence
Method: as §3, §1

Substance: 3-[3-[5-(bromomethyl)-5-hydroxy-m-diaxan-2-yl]-1,2-benzisothiazol-5-yl]-1-methyl-6-(trifluoromethyl)uracil [Compound 69]
- Preemergence herbicidal rating ORYSAT (ORYSAT (Rice, Tebonnet) [1]; Rate 0.0620 kg/ha): 1.0
- Preemergence herbicidal rating ORYSAT (ORYSAT (Rice, Tebonnet) [1]; Rate 0.1250 kg/ha): 2.0
- Preemergence herbicidal rating ORYSAT (ORYSAT (Rice, Tebonnet) [1]; Rate 0.2500 kg/ha): 5.0
- Preemergence herbicidal rating GALAP (GALAP (Galium aparine) [2]; Rate 0.0620 kg/ha): 7.0
- Preemergence herbicidal rating GALAP (GALAP (Galium aparine) [2]; Rate 0.1250 kg/ha): 9.0
- Preemergence herbicidal rating GALAP (GALAP (Galium aparine) [2]; Rate 0.2500 kg/ha): 9.0
- Preemergence herbicidal rating GLXMAW ([3]; Rate 0.0620 kg/ha): 2.0
- Preemergence herbicidal rating GLXMAW ([3]; Rate 0.1250 kg/ha): 9.0
- Preemergence herbicidal rating GLXMAW ([3]; Rate 0.2500 kg/ha): 9.0
- Preemergence herbicidal rating IPOHE ([4]; Rate 0.0620 kg/ha): 1.0
- Preemergence herbicidal rating IPOHE ([4]; Rate 0.1250 kg/ha): 9.0
- Preemergence herbicidal rating IPOHE ([4]; Rate 0.2500 kg/ha): 9.0
- IPOHE herbicidal rating ([5]; rate 0.0320 kg/ha): 9.0
- IPOHE herbicidal rating ([5]; rate 0.0620 kg/ha): 9.0
- SETVI herbicidal rating (SETVI (Setaria viridis) [6]; rate 0.0320 kg/ha): 2.0
- SETVI herbicidal rating (SETVI (Setaria viridis) [6]; rate 0.0620 kg/ha): 4.0
- TRZAWR herbicidal rating ([7]; rate 0.0320 kg/ha): 4.0
- TRZAWR herbicidal rating ([7]; rate 0.0620 kg/ha): 4.5
- Preemergence herbicidal rating ABUTH ([8]; Rate 0.0620 kg/ha): 9.0
- Preemergence herbicidal rating ABUTH ([8]; Rate 0.1250 kg/ha): 9.0
- Preemergence herbicidal rating ABUTH ([8]; Rate 0.2500 kg/ha): 9.0
- herbicidal rating, MOOVA ([9]; rate 0.0080 kg/ha): 0.0
- herbicidal rating, MOOVA ([9]; rate 0.0320 kg/ha): 0.0
- herbicidal rating, MOOVA ([9]; rate 0.1250 kg/ha): 3.0
- GLXMAW herbicidal rating ([10]; rate 0.0320 kg/ha): 7.5
- GLXMAW herbicidal rating ([10]; rate 0.0620 kg/ha): 7.0
- ABUTH herbicidal rating ([11]; rate 0.0320 kg/ha): 9.0
- ABUTH herbicidal rating ([11]; rate 0.0620 kg/ha): 9.0
- CASOB herbicidal rating ([12]; rate 0.0320 kg/ha): 0.0
- CASOB herbicidal rating ([12]; rate 0.0620 kg/ha): 2.0
- CHEAL herbicidal rating ([13]; rate 0.0320 kg/ha): 9.0
- CHEAL herbicidal rating ([13]; rate 0.0620 kg/ha): 7.0
- AMBEL herbicidal rating ([14]; rate 0.0320 kg/ha): 9.0
- AMBEL herbicidal rating ([14]; rate 0.0620 kg/ha): 9.0
- herbicidal rating, ECHORC ([15]; rate 0.0080 kg/ha): 0.0
- herbicidal rating, ECHORC ([15]; rate 0.0320 kg/ha): 0.0
- herbicidal rating, ECHORC ([15]; rate 0.1250 kg/ha): 3.0
- ECHCG herbicidal rating ([16]; rate 0.0320 kg/ha): 2.0
- ECHCG herbicidal rating ([16]; rate 0.0620 kg/ha): 3.0
- ORYSAT herbicidal rating (ORYSAT (Rice, Tebonnet) [17]; rate 0.0320 kg/ha): 4.0
- ORYSAT herbicidal rating (ORYSAT (Rice, Tebonnet) [17]; rate 0.0620 kg/ha): 4.0
- Preemergence herbicidal rating CASOB ([18]; Rate 0.0620 kg/ha): 0.0
- Preemergence herbicidal rating CASOB ([18]; Rate 0.1250 kg/ha): 1.0
- Preemergence herbicidal rating CASOB ([18]; Rate 0.2500 kg/ha): 6.0
- Preemergence herbicidal rating CHEAL ([19]; Rate 0.0620 kg/ha): 9.0
- Preemergence herbicidal rating CHEAL ([19]; Rate 0.1250 kg/ha): 9.0
- Preemergence herbicidal rating CHEAL ([19]; Rate 0.2500 kg/ha): 9.0
- Preemergence herbicidal rating AMBEL ([20]; Rate 0.0620 kg/ha): 7.0
- Preemergence herbicidal rating AMBEL ([20]; Rate 0.1250 kg/ha): 9.0
- Preemergence herbicidal rating AMBEL ([20]; Rate 0.2500 kg/ha): 8.0
- herbicidal rating, CYPIR (CYPIR (Cyperus iria); rate 0.0080 kg/ha): 0.0
- herbicidal rating, CYPIR (CYPIR (Cyperus iria); rate 0.0320 kg/ha): 0.0
- herbicidal rating, CYPIR (CYPIR (Cyperus iria); rate 0.1250 kg/ha): 3.0
- GALAP herbicidal rating (GALAP (Galium aparine) [21]; rate 0.0320 kg/ha): 4.0
- GALAP herbicidal rating (GALAP (Galium aparine) [21]; rate 0.0620 kg/ha): 6.0
- Preemergence herbicidal rating SETVI (SETVI (Setaria viridis) [22]; Rate 0.0620 kg/ha): 7.0
- Preemergence herbicidal rating SETVI (SETVI (Setaria viridis) [22]; Rate 0.1250 kg/ha): 9.0
- Preemergence herbicidal rating SETVI (SETVI (Setaria viridis) [22]; Rate 0.2500 kg/ha): 9.0
- Preemergence herbicidal rating ECHCG ([23]; Rate 0.0620 kg/ha): 4.0
- Preemergence herbicidal rating ECHCG ([23]; Rate 0.1250 kg/ha): 8.0
- Preemergence herbicidal rating ECHCG ([23]; Rate 0.2500 kg/ha): 8.0
- Preemergence herbicidal rating ZEAMX (ZEAMX (Corn, Field) [24]; Rate 0.0620 kg/ha): 1.0
- Preemergence herbicidal rating ZEAMX (ZEAMX (Corn, Field) [24]; Rate 0.1250 kg/ha): 3.0
- Preemergence herbicidal rating ZEAMX (ZEAMX (Corn, Field) [24]; Rate 0.2500 kg/ha): 7.0
- Preemergence herbicidal rating TRZAWR ([25]; Rate 0.0620 kg/ha): 1.0
- Preemergence herbicidal rating TRZAWR ([25]; Rate 0.1250 kg/ha): 2.0
- Preemergence herbicidal rating TRZAWR ([25]; Rate 0.2500 kg/ha): 5.0
- herbicidal rating, SAGPY ([26]; rate 0.0080 kg/ha): 0.0
- herbicidal rating, SAGPY ([26]; rate 0.0320 kg/ha): 0.0
- herbicidal rating, SAGPY ([26]; rate 0.1250 kg/ha): 3.0
- ZEAMX herbicidal rating (ZEAMX (Corn, Field) [27]; rate 0.0320 kg/ha): 5.5
- ZEAMX herbicidal rating (ZEAMX (Corn, Field) [27]; rate 0.0620 kg/ha): 5.5
